Experiments:
[1] = pKa of amine lipid by TNS fluorescence; format: physicochemical; details: probe TNS (6-(p-toluidino)-2-naphthalenesulfonic acid sodium salt), unformulated amine lipid in ethanol, sodium phosphate buffers -9.0
Protocol: The pKa of each amine lipid was determined according to the method in Jayaraman, et al. (Angewandte Chemie, 2012) with the following adaptations. The pKa was determined for unformulated amine lipid in ethanol. Lipid stock solutions (2.94 mM) were diluted into Sodium Phosphate Buffers (0.1 M, Boston Bioproducts) of different pH (pH-range: 4.5-9.0) yielding a final lipid concentration of approx. 100 μM. The test samples were supplemented with TNS {6-(p-Toluidino)-2-naphthalenesulfonic acid sodium salt}, incubated and the fluorescence intensity was measured using excitation and emission wavelengths of 321 nm and 448 nm, respectively. The recorded data were normalized and the respective pKa values were derived from sigmoidal fitting.

[2] = LNP average particle size and polydispersity by dynamic light scattering; format: physicochemical; details: LNP with the compound as amine lipid, composition ratio (mol %) 50/9/38/3 for Cmpnd 49, 50/10/38.5/1.5 for the others
Excerpt: The LNPs have a size of about 1 to about 1,000 nm, about 10 to about 500 nm, about 20 to about 500 nm, in a sub-embodiment about 50 to about 400 nm, in a sub-embodiment about 50 to about 300 nm, in a sub-embodiment about 50 to about 200 nm, and in a sub-embodiment about 50 to about 150 nm, and in another sub-embodiment about 60 to about 120 nm. Preferably, the LNPs have a size from about 60 nm to about 100 nm. The average sizes (diameters) of the fully formed LNP, may be measured by dynamic light scattering on a Malvern Zetasizer. The LNP sample is diluted in phosphate buffered saline (PBS) so that the count rate is approximately 200-400 kcps. The data is presented as a weighted average of the intensity measure.
In some embodiments, the LNPs have a size of about 75 to about 120 nm. In some embodiments, the LNPs have a size of about 75 to about 100 nm. Unless indicated otherwise, all sizes referred to herein are the average sizes (diameters) of the fully formed nanoparticles, as measured by dynamic light scattering on a Malvern Zetasizer. The nanoparticle sample is diluted in phosphate buffered saline (PBS) so that the count rate is approximately 200-400 kcps. The data is presented as a weighted-average of the intensity measure (Z-average diameter).
Dynamic Light Scattering (“DLS”) is used to characterize the polydispersity index (“pdi”) and size of the LNPs of the present disclosure. DLS measures the scattering of light that results from subjecting a sample to a light source. PDI, as determined from DLS measurements, represents the distribution of particle size (around the mean particle size) in a population, with a perfectly uniform population having a PDI of zero. Electropheretic light scattering is used to characterize the surface charge of the LNP at a specified pH. The surface charge, or the zeta potential, is a measure of the magnitude of electrostatic repulsion/attraction between particles in the LNP suspension. Asymmetric-Flow Field Flow Fractionation—Multi-Angle Light Scattering (AF4-MALS) is used to separate particles in the composition by hydrodynamic radius and then measure the molecular weights, hydrodynamic radii and root mean square radii of the fractionated particles. […] Nanoparticle tracking analysis (NTA, Malvern Nanosight) can be used to determine particle size distribution as well as particle concentration. LNP samples are diluted appropriately and injected onto a microscope slide. A camera records the scattered light as the particles are slowly infused through field of view. After the movie is captured, the Nanoparticle Tracking Analysis processes the movie by tracking pixels and calculating a diffusion coefficient. This diffusion coefficient can be translated into the hydrodynamic radius of the particle. The instrument also counts the number of individual particles counted in the analysis to give particle concentration.
LNP compositions are analyzed for average particle size, polydispersity index (pdi), total RNA content, encapsulation efficiency of RNA, and zeta potential. LNP compositions may be further characterized by lipid analysis, AF4-MALS, NTA, and/or cryo-EM. Average particle size and polydispersity are measured by dynamic light scattering (DLS) using a Malvern Zetasizer DLS instrument. LNP samples were diluted with PBS buffer prior to being measured by DLS. Z-average diameter which is an intensity-based measurement of average particle size was reported along with number average diameter and pdi. A Malvern Zetasizer instrument is also used to measure the zeta potential of the LNP. Samples are diluted 1:17 (50 μL into 800 μL) in 0.1×PBS, pH 7.4 prior to measurement.

[3] = RNA encapsulation efficiency of LNP (Ribogreen fluorescence assay); format: physicochemical; details: LNP with the compound as amine lipid, composition ratio (mol %) 50/9/38/3 for Cmpnd 49, 50/10/38.5/1.5 for the others
Protocol: A fluorescence-based assay (Ribogreen®, ThermoFisher Scientific) is used to determine total RNA concentration and free RNA. Encapsulation efficiency is calculated as (Total RNA—Free RNA)/Total RNA. LNP samples are diluted appropriately with 1× TE buffer containing 0.2% Triton-X 100 to determine total RNA or 1× TE buffer to determine free RNA. Standard curves are prepared by utilizing the starting RNA solution used to make the compositions and diluted in 1× TE buffer+/−0.2% Triton-X 100. Diluted RiboGreen® dye (according to the manufacturer's instructions) is then added to each of the standards and samples and allowed to incubate for approximately 10 minutes at room temperature, in the absence of light. A SpectraMax M5 Microplate Reader (Molecular Devices) is used to read the samples with excitation, auto cutoff and emission wavelengths set to 488 nm, 515 nm, and 525 nm respectively. Total RNA and free RNA are determined from the appropriate standard curves.
Encapsulation efficiency is calculated as (Total RNA−Free RNA)/Total RNA. The same procedure may be used for determining the encapsulation efficiency of a DNA-based cargo component. For single-strand DNA, Oligreen Dye may be used and for double-strand DNA, Picogreen Dye.

[4] = tested on: mouse TTR; assay: Serum TTR ELISA in mice after LNP delivery; format: in vivo; details: mouse serum, relative to TSS control of same experiment
Protocol: For studies measuring in vivo editing in liver, CD-1 female mice were dosed at 0.1 mpk unless otherwise noted. Animals were euthanized at 6 or 7 days by exsanguinationvia cardiac puncture under isoflourane anesthesia. Liver tissue was collected from each animal for DNA extraction and analysis. Blood was collected into serum separator tubes or into tubes containing buffered sodium citrate for plasma as described herein. Cohorts of mice were measured for editing by Next-Generation Sequencing (NGS).
Blood was collected and the serum was isolated as indicated. The total mouse TTR serum levels were determined using a Mouse Prealbumin (Transthyretin) ELISA Kit (Aviva Systems Biology, Cat. OKIA00111). Briefly, sera were serial diluted with kit sample diluent, e.g. to a final dilution of 10,000-fold and/or 2,500-fold. The diluted sample was then added to the ELISA plates and the assay was then carried out according to directions. Serum TTR data from treatment groups are expressed as a percentage of vehicle control levels.

SMILES	pKa [1]	Num Ave Size (nm) ([2]; Expt. 1)	PDI ([2]; Expt. 1)	Z-Ave Size (nm) ([2]; Expt. 1)	Encapsulation (%) ([3]; Expt. 1)	Serum TTR % TSS ([4]; dose 0.1 mpk)	Num Ave Size (nm) ([2]; Expt. 10)	PDI ([2]; Expt. 10)	Z-Ave Size (nm) ([2]; Expt. 10)	Encapsulation (%) ([3]; Expt. 10)	Serum TTR % TSS ([4]; dose 0.03 mpk)	Num Ave Size (nm) ([2]; Expt. 6)	PDI ([2]; Expt. 6)	Z-Ave Size (nm) ([2]; Expt. 6)	Encapsulation (%) ([3]; Expt. 6)
CCCCCCCCCCCOC(=O)CCCCCCCC(=O)OCC(COC(=O)CCCCCCCC(=O)OCCCCCCCCCCC)OC(=O)CC(CCCCCCCC)OC(=O)NCCN(C)CC (stereo not shown) [Compound 59, O′1,O1-(2-((3-(((2-(ethyl(methyl)amino)ethyl)carbamoyl)oxy)undecanoyl)oxy)propane-1,3-diyl) 9,9′-diundecyl di(nonanedioate)]	6.34	88.36 nm	0.03	109.90 nm	97%	80.70 % TSS									
CCCCC/C=C\C/C=C\CCCCCCCC(=O)OCC(COC(=O)CCCCCCC/C=C\C/C=C\CCCCC)COC(=O)CCCC(CCCCCCCC)OC(=O)NCCN(C)CC (stereo not shown) [Compound 55, 2-(13-methyl-7-octyl-3,9-dioxo-2,8-dioxa-10,13-diazapentadecyl)propane-1,3-diyl (9Z,9′Z,12Z,12′Z)-bis(octadeca-9,12-dienoate)]	6.43	99.29 nm	0.02	117.30 nm	97%	72.79 % TSS									
CCCCC/C=C\C/C=C\CCCCCCCC(=O)OCC(COC(=O)CCCCCCC/C=C\C/C=C\CCCCC)OC(=O)CCC(CCCCCCCC)OC(=O)NCCN(CC)CC (stereo not shown) [Compound 96, 2-((4-(((2-(diethylamino)ethyl)carbamoyl)oxy)dodecanoyl)oxy)propane-1,3-diyl (9Z,9′Z,12Z,12′Z)-bis(octadeca-9,12-dienoate)]	6.14						73 nm	0.03	89 nm	98%	70% TSS				
CCCCC/C=C\C/C=C\CCCCCCCC(=O)OCC(COC(=O)CCCCCCC/C=C\C/C=C\CCCCC)OC(=O)CCC(CC(CC)CC)OC(=O)NCCN(C)CC (stereo not shown) [Compound 103, 2-((6-ethyl-4-(((2-(ethyl(methyl)amino)ethyl)carbamoyl)oxy)octanoyl)oxy)propane-1,3-diyl (9Z,9′Z,12Z,12′Z)-bis(octadeca-9,12-dienoate)]	6.09					29.05 % TSS					72.23 % TSS	82 nm	0.01	102.00 nm	91%
CCCCCCCCCCCOC(=O)CCCCCCCC(=O)OCC(COC(=O)CCCCCCCC(=O)OCCCCCCCCCCC)OC(=O)CCCC(CCCCCCCC)OC(=O)NCCN(C)CC (stereo not shown) [Compound 61, O′1,O1-(2-((5-(((2-(ethyl(methyl)amino)ethyl)carbamoyl)oxy)tridecanoyl)oxy)propane-1,3-diyl) 9,9′-diundecyl di(nonanedioate)]	6.29	79.7 nm	0.06	102.00 nm	97%	81.48 % TSS									
CCCCCCCCCCOC(=O)CCCCCCCC(=O)OCC(COC(=O)CCCCCCCC(=O)OCCCCCCCCCC)OC(=O)CCC(CCCCCCCC)OC(=O)NCCN(C)CC (stereo not shown) [Compound 57, 9,9′-didecyl O′1,O1-(2-((4-(((2-(ethyl(methyl)amino)ethyl)carbamoyl)oxy)dodecanoyl)oxy)propane-1,3-diyl) di(nonanedioate)]	6.18	83.73 nm	0.02	100.40 nm	98%	24.58 % TSS									
CCCCC/C=C\C/C=C\CCCCCCCC(=O)OCC(COC(=O)CCCCCCC/C=C\C/C=C\CCCCC)OC(=O)CCC(CCCCCCCC)OC(=O)OC1CCN(C)CC1 (stereo not shown) [Compound 92, 2-((4-((((1-methylpiperidin-4-yl)oxy)carbonyl)oxy)dodecanoyl)oxy)propane-1,3-diyl (9Z,9′Z,12Z,12′Z)-bis(octadeca-9,12-dienoate)]	5.96						51 nm	0.06	67 nm	98%	120% TSS				
CCCCC/C=C\C/C=C\CCCCCCCC(=O)OCC(COC(=O)CCCCCCCC(=O)OCCCCCCCCCCC)OC(=O)CCCC(CCCCCCCC)OC(=O)NCCN(C)CC (stereo not shown) [Compound 64, 1-(3-methyl-15-((((9Z,12Z)-octadeca-9,12-dienoyl)oxy)methyl)-9-octyl-7,13-dioxo-8,14-dioxa-3,6-diazahexadecan-16-yl) 9-undecyl nonanedioate]	6.3	86.19 nm	0.02	106.40 nm	97%	85.39 % TSS									

— patent publication US12077483B2, “Modified amine lipids” (Intellia Therapeutics, Inc., priority 2018, dated 2024)
